Results as given in PMC7144323, “S-substituted 2-mercaptoquinazolin-4(3H)-one and 4-ethylbenzensulfonamides act as potent and selective human carbonic anhydrase IX and XII inhibitors” (Journal of Enzyme Inhibition and Medicinal Chemistry, 2020).
Read-outs that look alike come from different tables or passages of the source.

Assays:
Assay in all cases: stopped-flow CA inhibition assay
Type in all cases: biochemical
hCA IX = biological target: T1, hCA IX (Homo sapiens, UniProt Q16790)
T1 construct: gene CA9; recombinant, obtained in-house
Text: stopped-flow CA inhibition assay on hCA IX

hCA XII = biological target: T2, hCA XII (Homo sapiens, UniProt O43570)
T2 construct: gene CA12; recombinant, obtained in-house
T2 sequence (O43570 25-354): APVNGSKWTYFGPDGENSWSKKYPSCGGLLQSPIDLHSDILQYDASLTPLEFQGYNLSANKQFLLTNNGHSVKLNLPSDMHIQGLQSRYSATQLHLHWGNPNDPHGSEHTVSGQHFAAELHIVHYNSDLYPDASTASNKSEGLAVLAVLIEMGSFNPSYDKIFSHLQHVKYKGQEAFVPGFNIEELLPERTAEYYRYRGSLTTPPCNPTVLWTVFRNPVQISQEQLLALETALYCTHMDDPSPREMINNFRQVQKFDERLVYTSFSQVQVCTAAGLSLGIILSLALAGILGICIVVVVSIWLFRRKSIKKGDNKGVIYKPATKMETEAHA
Text: stopped-flow CA inhibition assay on hCA XII

hCA I = biological target: T3, hCA I (Homo sapiens, UniProt P00915)
T3 construct: gene CA1; recombinant, obtained in-house
T3 sequence (P00915 2-261): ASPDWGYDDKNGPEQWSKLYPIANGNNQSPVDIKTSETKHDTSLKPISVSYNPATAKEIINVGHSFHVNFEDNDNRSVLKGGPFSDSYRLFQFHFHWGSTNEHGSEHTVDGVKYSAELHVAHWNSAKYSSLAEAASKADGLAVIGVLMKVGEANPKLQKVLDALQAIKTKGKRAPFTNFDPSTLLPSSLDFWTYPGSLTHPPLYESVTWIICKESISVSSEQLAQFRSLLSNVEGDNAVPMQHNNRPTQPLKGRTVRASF
Text: stopped-flow CA inhibition assay on hCA I

hCA II = biological target: T4, hCA II (Homo sapiens, UniProt P00918)
T4 construct: gene CA2; recombinant, obtained in-house
Text: stopped-flow CA inhibition assay on hCA II

Compound	Ki (hCA IX)	Ki (hCA XII)	Ki (hCA I)	Ki (hCA IX; mean of […] assays, errors ±[…])	Ki (hCA XII; mean of […] assays, errors ±[…])	Ki (hCA II)
NS(=O)(=O)c1ccc(CCn2c(SCC(=O)c3ccccc3)nc3ccccc3c2=O)cc1 [compound 2, 4-(2-(4-Oxo-2-((2-oxo-2-phenylethyl)thio)quinazolin-3(4H)-yl)ethyl)benzenesulfonamide]	40.7 nM	13 nM	593 nM			
NS(=O)(=O)c1ccc(CCn2c(SCC(=O)c3ccc(Br)cc3)nc3ccccc3c2=O)cc1 [compound 3, 4-(2-(2-((2-(4-Bromophenyl)-2-oxoethyl)thio)-4-oxoquinazolin-3(4H)-yl)ethyl)benzenesulfonamide]	75.2 nM	69.6 nM	1450 nM			
NS(=O)(=O)c1ccc(CCn2c(SCC(=O)c3ccc(Cl)cc3)nc3ccccc3c2=O)cc1 [compound 4, 4-(2-(2-((2-(4-Chlorophenyl)-2-oxoethyl)thio)-4-oxoquinazolin-3(4H)-yl)ethyl)benzenesulfonamide]				8 nM	10.8 nM	
NS(=O)(=O)c1ccc(CCn2c(SCC(=O)c3ccc(F)cc3)nc3ccccc3c2=O)cc1 [compound 5, 4-(2-(2-((2-(4-Fluorophenyl)-2-oxoethyl)thio)-4-oxoquinazolin-3(4H)-yl)ethyl)benzenesulfonamide]		9.1 nM	400 nM	16.5 nM		
Cc1ccc(C(=O)CSc2nc3ccccc3c(=O)n2CCc2ccc(S(N)(=O)=O)cc2)cc1 [compound 6, 4-(2-(4-Oxo-2-((2-oxo-2-(p-tolyl)ethyl)thio)quinazolin-3(4H)-yl)ethyl)benzenesulfonamide]	25.1 nM	85.1 nM	471 nM			
CC(Sc1nc2ccccc2c(=O)n1CCc1ccc(S(N)(=O)=O)cc1)C(=O)c1ccccc1 (stereo not shown) [compound 7, 4-(2-(4-Oxo-2-((1-oxo-1-phenylpropan-2-yl)thio)quinazolin-3(4H)-yl)ethyl)benzenesulfonamide]	63.2 nM	76.8 nM	978 nM			
NC(=O)CSc1nc2ccccc2c(=O)n1CCc1ccc(S(N)(=O)=O)cc1 [compound 8, 8]				34.5 nM	2.4 nM	
NS(=O)(=O)c1ccc(CCn2c(SCC(=O)Nc3ccccc3)nc3ccccc3c2=O)cc1 [compound 9, 9]	27.3 nM	38.4 nM	460 nM			
NS(=O)(=O)c1ccc(CCn2c(SCC(=O)Nc3ccc(Br)cc3)nc3ccccc3c2=O)cc1 [compound 10, 10]	64.9 nM	61 nM	697 nM			
NS(=O)(=O)c1ccc(CCn2c(SCC(=O)Nc3ccc(Cl)cc3)nc3ccccc3c2=O)cc1 [compound 11, 11]	66.8 nM	31.6 nM	726 nM			92 nM
NS(=O)(=O)c1ccc(CCn2c(SCC(=O)Nc3ccc(F)cc3)nc3ccccc3c2=O)cc1 [compound 12, N-(4-fluorophenyl)-2-((4-oxo-3-(4-sulfamoylphenethyl)-3,4-dihydroquinazolin-2-yl)thio)acetamide]		8.7 nM		12.7 nM		
Cc1ccc(NC(=O)CSc2nc3ccccc3c(=O)n2CCc2ccc(S(N)(=O)=O)cc2)cc1 [compound 13, 13]	37.4 nM	45.2 nM	878 nM			
COc1ccc(NC(=O)CSc2nc3ccccc3c(=O)n2CCc2ccc(S(N)(=O)=O)cc2)cc1 [compound 14, 14]	84 nM	49.1 nM	2570 nM			
CCOc1ccc(NC(=O)CSc2nc3ccccc3c(=O)n2CCc2ccc(S(N)(=O)=O)cc2)cc1 [compound 15, 15]	35.9 nM	59.7 nM	3650 nM			
CC(=O)c1ccc(NC(=O)CSc2nc3ccccc3c(=O)n2CCc2ccc(S(N)(=O)=O)cc2)cc1 [compound 16, 16]	24.1 nM	22.5 nM	1700 nM			
COc1cc(NC(=O)CSc2nc3ccccc3c(=O)n2CCc2ccc(S(N)(=O)=O)cc2)cc(OC)c1OC [compound 17, 17]	100 nM	16.9 nM	2670 nM			
NS(=O)(=O)c1ccc(CCn2c(SCC(=O)NCc3ccc(F)cc3)nc3ccccc3c2=O)cc1 [compound 18, N-(4-fluorobenzyl)-2-((4-oxo-3-(4-sulfamoylphenethyl)-3,4-dihydroquinazolin-2-yl)thio)acetamide]	256 nM	113 nM	2050 nM			
COc1ccc(CNC(=O)CSc2nc3ccccc3c(=O)n2CCc2ccc(S(N)(=O)=O)cc2)cc1OC [compound 19, 19]	145 nM	97.3 nM	5470 nM			
CC(Sc1nc2ccccc2c(=O)n1CCc1ccc(S(N)(=O)=O)cc1)C(=O)Nc1ccc(Cl)cc1 (stereo not shown) [compound 20, 20]	18.6 nM	66.7 nM	3630 nM			
